Literature values in patent publication US8288412B2, “Compounds which have activity at M1 receptor and their uses in medicine” (Glaxo Group Limited, priority 2005, dated 2012).

Tests used:
[1] = rats
[2] = mice
[3] = unilateral 6-OH-DA lesioned rats
[4] = monkeys

**Q.** Which results are given for `CCCCCCOc1nsnc1C1=CCCN(C)C1` [xanomeline]?
**A.** amphetamine induced locomotion [1]: reverses; apomorphine induced climbing [2]: reverses; dopamine agonist driven turning [3]: reverses; amphetamine-induced motor unrest [4]: reverses; psychotic symptoms such as suspiciousness, hallucinations and delusions (Alzheimer's patients): reduce psychotic symptoms; side effects (patients): dose-limiting peripheral cholinergic side effects
